Data reported in patent publication US8192962B2, “Processes for detecting toxic substances” (Daikin Industries, Ltd., priority 2001, dated 2012).

Test system: Mitochondria-located protein genes
Assay: DNA chip mRNA expression in yeast, mitochondria-located protein genes (Table 2)
Type: cell-based, Saccharomyces cerevisiae S288C
Settings: cells incubated two hours with the chemical substance
How it was run: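 In this screen, yeast in logarithmic growth are challenged for two hours with a toxic substance at a non-lethal inhibitory concentration. Their mRNA, converted to Cy3- or Cy5-labeled cDNA, hybridizes at 65° C. to a chip spanning every yeast gene, and expression is expressed as a ratio to untreated cells.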

Measured: The level of expressed mRNA in the presence of chemical substance/The level of expressed mRNA in the absence of chemical substance

[Cl][Pb][Cl] [(4), PbCl2]
1.7: yeast gene YKL016C | yeast gene YKL141W | yeast gene YLR295C | yeast gene YMR035W | yeast gene YNL073W | yeast gene YOR020C | yeast gene YOR100C | yeast gene YPL040C | yeast gene YPR134W
1.5: yeast gene YNL071W | yeast gene YOR316C | yeast gene YPL215W | yeast gene YPR047W
0.7: yeast gene YKL148C | yeast gene YKR066C | yeast gene YLR304C
1.9: yeast gene YKL170W | yeast gene YLR395C | yeast gene YML120C | yeast gene YMR023C | yeast gene YOR150W
1.8: yeast gene YKL003C
1.4: yeast gene YKL142W | yeast gene YMR203W | yeast gene YOR037W
1.3: yeast gene YPR037C
1.1: yeast gene YMR083W
1.6: yeast gene YKL194C | yeast gene YLR259C | yeast gene YOL096C | yeast gene YPL134C
1.0: yeast gene YLL041C | yeast gene YOR130C | yeast gene YOR142W | yeast gene YPR024W
3.4: yeast gene YML054C
0.6: yeast gene YNL256W
0.9: yeast gene YMR089C | yeast gene YMR152W | yeast gene YMR267W | yeast gene YNL104C | yeast gene YOR176W | yeast gene YPR067W
1.2: yeast gene YLR348C | yeast gene YML129C | yeast gene YPL135W | yeast gene YPL262W
2.0: yeast gene YNL055C | yeast gene YOR187W
2.1: yeast gene YLR038C
